Measured values: US20170204380A1, “GLYCOSYL TRANSFERASES AND THEIR USES” (TECHNISCHE UNIVERSITAT MUNCHEN, priority 2014, published 2017)
Like-named read-outs stand apart in the source and are kept apart here.

What was measured:
VvGT16 [1] = target: T1, VvGT16 (Vitis vinifera, UniProt F6HTJ4)
Procedure: (§1) The measurements were performed under the following conditions. […] Radioactivity was determined by LSC.

VvGT14a [2] = target: T2, VvGT14a (Vitis vinifera, UniProt F6H0R6); experiment: Substrate screening, radiochemical analysis with UDP-[14C]glucose; format: biochemical
Procedure: (§2) In the initial screening, each reaction mixture (200 μL in total) contained Tris-HCl buffer (100 mM, pH 8, 10 mM 2-mercaptoethanol), 37 pmol UDP-[^14C]glucose (0.01 μCi, Biotrend, Köln, Germany), substrate (50 μL of a 1 mg/mL stock solution) and purified protein (0.5-0.8 μg/μL). […] The organic phase was mixed with 2 mL Pro Flow P+ cocktail (Meridian Biotechnologies Ltd., Epsom, UK) and radioactivity was determined by liquid scintillation counting (LSC, Tri-Carb 2800TR, Perkin Elmer, Waltham Mass., USA). Additionally, negative controls without substrate were performed.
(§3) The recombinant proteins were expressed with an N-terminal GST-tag, affinity purified and verified by SDS-PAGE and Western Blot using GST-specific antibody.

VvGT16 [3] = target: T1, VvGT16; experiment: as above; format: biochemical
Procedure: as §2, §3

VvGT15b [4] = target: T3, VvGT15b (Vitis vinifera, UniProt A0ABY9C1E0); experiment: as above; format: biochemical
Procedure: as §2, §3

VvGT15c [5] = target: T4, VvGT15c (Vitis vinifera, UniProt A0ABY9C1E0); experiment: as above; format: biochemical
Procedure: as §2, §3

VvGT15a [6] = target: T5, VvGT15a (Vitis vinifera, UniProt A0ABY9C1E0); experiment: as above; format: biochemical
Procedure: as §2, §3

VvGT14a [7] = target: T2, VvGT14a; conditions: for kcat/KM of VvGT14a higher than the value for UGT85B1 from Sorghum bicolor: VvGT14a versus UGT85B1; for Km / kcat: pH 8.5
VvGT14a [8] = target: T2, VvGT14a; experiment: Enantioselectivity by chiral phase SPME-GC-MS after hydrolysis of the formed glucoside; format: biochemical; conditions: racemic substrate, prolonged incubation (24 h)
Procedure: (§4) To determine the enantioselectivity of VvGT14 and VvGT15 the enantiomeric ratio of glucosidically bound citronellol and linalool was determined by enantioselective GC-MS. Following the incubation, residual citronellol and linalool were completely removed by extraction with dichloromethane. Chronellyl β-D-glucoside which remained in the aqueous phase was hydrolyzed by HCl (2 mL, 0.1 M, pH 1) for one hour at 100° C. to release citronellol (Skouroumounis and Sefton, 2000). In case of linalyl β-D-glucoside an enzymatic hydrolysis (AR 2000, citric acid buffer pH 4, 24 h) was applied due to the instability of linalool in acid solutions (Williams et al., 1982). […] After hydrolysis, citronellol and linalool were analyzed by SPME-GC-MS as described above.
(§5) GC-MS analysis was performed with a Varian GC-450 coupled to a Varian MS-240 ion-trap employing a Phenomenex Zebron ZB-WAXplus column (30 m×0.25 mm×0.25 μm, Aschaffenburg, Germany). Helium flow rate was 1 mL/min. The analysis was carried out in split mode (liquid injections) or splitless mode (SPME measurements) with 220° C. injector temperature. EI (electron impact ionization)-MS spectra were recorded from m/z 40 to 300 (ionization energy 70 eV; trap temperature 170° C.). The oven temperature program was 60° C. (3 min), 10° C./min up to 250° C. (5 min). In case of SPME measurements, liberated aglycones were isolated for 10 min at 60° C. using a fiber coated with a 85 μm film of polyacrylate (SUPELCO, Bellefonte, USA). After extraction the SPME fiber was desorbed for 10 min at 250° C. in the injection port of the GC-MS system and the column oven program was carried out as described above. Enantioselective GC-MS analysis was performed with a Varian GC-450 coupled to a Varian MS-240 ion-trap. The column was a DiAcB (heptakis-(2,3-di-O-acetyl-6-O-tert.-butyldimethylsilyl)-B-cyclodextrin), 26 m×0.32 mm i.d. with a 0.1 μm film. […] GC-MS measurements were recorded in full scan mode. Selected ion monitoring (SIM) mode was used for quantification.

VvGT15a [9] = target: T5, VvGT15a; experiment: as above; format: biochemical; conditions: racemic substrate, prolonged incubation (24 h)
Procedure: as §4, §5

VvGT15b [10] = target: T3, VvGT15b; format: biochemical; conditions: UDP-glucose fixed 833 μM (for UDP-glucose: geraniol fixed 1.25 mM), Tris-HCl pH 7.5, 30° C.
Procedure: as §1

VvGT15c [11] = target: T4, VvGT15c; format: biochemical; conditions: UDP-glucose fixed 833 μM (for UDP-glucose: geraniol fixed 1.25 mM), Tris-HCl pH 7.5, 30° C.
Procedure: as §1

VvGT15a [12] = target: T5, VvGT15a; format: biochemical; conditions: UDP-glucose fixed 833 μM (for UDP-glucose: geraniol fixed 1.25 mM), Tris-HCl pH 7.5, 30° C.
Procedure: as §1

CaUGT2 = conditions: CaUGT2, natural substrate; cited from earlier work
VvGT5 = conditions: cited from earlier work
VvGT1 = target: T6, VvGT1 (Vitis vinifera, UniProt P51094); conditions: VvGT1, natural substrate; cited from earlier work
T6 sequence (P51094 1-456): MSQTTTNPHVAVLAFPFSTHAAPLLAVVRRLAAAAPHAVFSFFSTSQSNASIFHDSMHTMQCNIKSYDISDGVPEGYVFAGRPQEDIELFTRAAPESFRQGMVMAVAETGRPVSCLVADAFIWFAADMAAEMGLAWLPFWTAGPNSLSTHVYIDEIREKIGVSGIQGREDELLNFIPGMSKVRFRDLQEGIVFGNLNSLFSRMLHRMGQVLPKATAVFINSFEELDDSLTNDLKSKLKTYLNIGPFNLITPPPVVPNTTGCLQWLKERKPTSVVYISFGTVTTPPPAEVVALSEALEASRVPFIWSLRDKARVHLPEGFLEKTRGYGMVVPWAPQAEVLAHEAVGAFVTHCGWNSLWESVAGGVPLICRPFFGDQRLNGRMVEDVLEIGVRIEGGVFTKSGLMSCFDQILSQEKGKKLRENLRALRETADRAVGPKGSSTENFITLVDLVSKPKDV

UGT71G1 = conditions: cited from earlier work
VvGT6 = conditions: cited from earlier work
[13] = UDP-glucose fixed 512.5 μM (for UDP-glucose: geraniol fixed 1.25 mM), Tris-HCl pH 8.5, 30° C.

T5 sequence (A0ABY9C1E0 entry or part of it): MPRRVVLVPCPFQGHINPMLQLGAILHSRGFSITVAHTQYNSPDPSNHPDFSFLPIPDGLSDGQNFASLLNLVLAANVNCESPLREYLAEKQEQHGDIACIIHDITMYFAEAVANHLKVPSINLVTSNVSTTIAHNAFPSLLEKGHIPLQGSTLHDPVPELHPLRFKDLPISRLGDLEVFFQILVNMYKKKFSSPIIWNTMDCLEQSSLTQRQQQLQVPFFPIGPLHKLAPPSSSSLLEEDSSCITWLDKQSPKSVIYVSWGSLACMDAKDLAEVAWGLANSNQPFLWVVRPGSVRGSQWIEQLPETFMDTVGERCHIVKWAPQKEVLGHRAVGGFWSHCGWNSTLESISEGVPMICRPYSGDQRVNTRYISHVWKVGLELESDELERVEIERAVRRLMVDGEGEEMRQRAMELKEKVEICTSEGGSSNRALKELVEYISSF
T1 sequence (F6HTJ4 entry or part of it): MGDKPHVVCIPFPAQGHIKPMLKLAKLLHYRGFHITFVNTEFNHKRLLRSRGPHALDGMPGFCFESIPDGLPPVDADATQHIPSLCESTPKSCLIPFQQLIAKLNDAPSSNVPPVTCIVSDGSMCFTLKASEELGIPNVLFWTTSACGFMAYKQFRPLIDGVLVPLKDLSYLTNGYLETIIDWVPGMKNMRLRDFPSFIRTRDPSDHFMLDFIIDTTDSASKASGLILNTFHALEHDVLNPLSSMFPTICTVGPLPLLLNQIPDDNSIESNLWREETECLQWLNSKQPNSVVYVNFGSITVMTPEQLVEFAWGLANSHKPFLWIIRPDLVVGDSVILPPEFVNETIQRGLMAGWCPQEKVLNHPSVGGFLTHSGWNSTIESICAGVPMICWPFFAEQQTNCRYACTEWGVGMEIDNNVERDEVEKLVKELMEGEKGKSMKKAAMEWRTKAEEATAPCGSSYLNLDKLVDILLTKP
T3 sequence (A0ABY9C1E0 entry or part of it): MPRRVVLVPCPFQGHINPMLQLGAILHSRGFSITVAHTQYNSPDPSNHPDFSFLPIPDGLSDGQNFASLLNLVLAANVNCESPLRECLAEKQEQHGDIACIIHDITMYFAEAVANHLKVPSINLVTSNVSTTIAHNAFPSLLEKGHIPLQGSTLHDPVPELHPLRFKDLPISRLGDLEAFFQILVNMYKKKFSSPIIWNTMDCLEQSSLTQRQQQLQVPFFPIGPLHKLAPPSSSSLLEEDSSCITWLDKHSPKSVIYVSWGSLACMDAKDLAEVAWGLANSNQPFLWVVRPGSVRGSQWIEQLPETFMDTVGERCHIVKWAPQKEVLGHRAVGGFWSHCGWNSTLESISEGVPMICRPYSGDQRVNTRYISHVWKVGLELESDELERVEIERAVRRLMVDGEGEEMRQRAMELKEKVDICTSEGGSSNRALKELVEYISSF
T2 sequence (F6H0R6 entry or part of it): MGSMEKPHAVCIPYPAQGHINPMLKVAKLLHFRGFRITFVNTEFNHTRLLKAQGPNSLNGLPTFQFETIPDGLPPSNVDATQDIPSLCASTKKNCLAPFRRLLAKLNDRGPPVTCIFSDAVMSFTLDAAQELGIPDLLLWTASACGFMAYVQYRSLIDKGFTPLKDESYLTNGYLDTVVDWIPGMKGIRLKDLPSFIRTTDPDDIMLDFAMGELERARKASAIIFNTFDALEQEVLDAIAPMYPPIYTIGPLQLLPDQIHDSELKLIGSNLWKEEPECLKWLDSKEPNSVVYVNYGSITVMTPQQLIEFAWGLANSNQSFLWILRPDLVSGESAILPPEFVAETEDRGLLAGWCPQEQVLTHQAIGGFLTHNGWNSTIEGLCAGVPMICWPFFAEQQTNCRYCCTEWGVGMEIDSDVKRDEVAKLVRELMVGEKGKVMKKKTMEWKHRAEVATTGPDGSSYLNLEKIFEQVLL

CC(C)=CCCC(C)CCO (racemic) [citronellol (rac), (R,S)-3,7-dimethyl-6-octen-1-ol]
Km (VvGT16 [1]; [13]): 108 ± 2.5 µM
kcat (VvGT16 [1]; [13]): 0.008 s⁻¹
transformation of R- and S-citronellol (in words) (VvGT16 [1]; radiochemical assays): same efficiency
conversion as substrate (in words) (VvGT14a [2]): preferred
conversion as substrate (in words) (VvGT16 [3]): transformed
conversion as substrate (in words) (VvGT15b [4]): glucosylated primarily
conversion as substrate (in words) (VvGT15c [5]): glucosylated primarily
conversion as substrate (in words) (VvGT15a [6]): glucosylated primarily
kcat/KM of VvGT14a higher than the value for UGT85B1 from Sorghum bicolor (VvGT14a [7]): 4 fold
enantiomeric preference, aglycone liberated from the formed glucoside (VvGT14a [8]): no enantio-discrimination
enantiomeric preference, aglycone liberated from the formed glucoside (VvGT15a [9]): no enantio-discrimination

C=CC(C)(O)CCC=C(C)C (racemic) [linalool (rac), (R,S)-3,7-dimethyl-1,6-octadien-3-ol]
conversion as substrate (in words) (VvGT14a [2]): catalytic activity
enantiomeric preference, aglycone liberated from the formed glucoside (VvGT14a [8]): slight enrichment of the R-enantiomer

CC(C)=CCC/C(C)=C/CO [Geraniol, (E)-3,7-dimethyl-2,6-octadien-1-ol]
kcat (VvGT16 [1]; [13]): 0.015 s⁻¹
conversion as substrate (in words) (VvGT14a [2]): preferred
conversion as substrate (in words) (VvGT15b [4]): glucosylated primarily
conversion as substrate (in words) (VvGT15c [5]): glucosylated primarily
conversion as substrate (in words) (VvGT15a [6]): glucosylated primarily
kcat/KM of VvGT14a higher than the value for UGT85B1 from Sorghum bicolor (VvGT14a [7]): 4 fold
Km (VvGT14a [7]): 9 µM
kcat (VvGT14a [7]): 0.02 s⁻¹
Km (VvGT15b [10]): 81 µM
kcat (VvGT15b [10]): 0.10 s⁻¹
kcat (VvGT15b [10]; listed as geraniol): 0.1 s⁻¹
Km (VvGT15c [11]): 43 µM
kcat (VvGT15c [11]): 0.17 s⁻¹
Km (VvGT15a [12]): 63 µM
kcat (VvGT15a [12]): 0.12 s⁻¹

CC(C)=CCC/C(C)=C\CO [Nerol, (Z)-3,7-dimethyl-2,6-octadien-1-ol]
kcat (VvGT16 [1]; [13]): 0.009 s⁻¹
conversion as substrate (in words) (VvGT16 [3]): transformed
conversion as substrate (in words) (VvGT15b [4]): glucosylated primarily
conversion as substrate (in words) (VvGT15c [5]): glucosylated primarily
conversion as substrate (in words) (VvGT15a [6]): glucosylated primarily
kcat/KM of VvGT14a higher than the value for UGT85B1 from Sorghum bicolor (VvGT14a [7]): 40 fold
Km (VvGT14a [7]): 10 µM
kcat (VvGT14a [7]): 0.02 s⁻¹

COc1cc(/C=C/C(=O)CC(=O)/C=C/c2ccc(O)c(OC)c2)ccc1O [curcumin]
Km (CaUGT2): 43.9 µM
kcat (CaUGT2): 0.0165 s⁻¹

CCCCCCO [hexanol]
conversion as substrate (in words) (VvGT15b [4]): glucosylated primarily
conversion as substrate (in words) (VvGT15c [5]): glucosylated primarily
conversion as substrate (in words) (VvGT15a [6]): glucosylated primarily

N#CC(O)c1ccccc1 (stereo not drawn) [mandelonitrile]
conversion as substrate (in words) (VvGT14a [2]): catalytic activity
conversion as substrate (in words) (VvGT14a [2]; listed as Mandelonitrile): poor substrate
conversion as substrate (in words) (VvGT15b [4]): not accepted at all
conversion as substrate (in words) (VvGT15c [5]): not accepted at all
conversion as substrate (in words) (VvGT15a [6]): not accepted at all

CCCCCCCCO [octanol]
conversion as substrate (in words) (VvGT15b [4]): glucosylated primarily
conversion as substrate (in words) (VvGT15c [5]): glucosylated primarily
conversion as substrate (in words) (VvGT15a [6]): glucosylated primarily

O=c1c(O)c(-c2ccc(O)c(O)c2)oc2cc(O)cc(O)c12 [quercetin]
Km (VvGT5): 5.6 µM
kcat (VvGT5): 7.16 s⁻¹
Km (VvGT1): 31 µM
kcat (VvGT1): 0.075 s⁻¹
Km (UGT71G1): 57 µM
kcat (UGT71G1): 0.0175 s⁻¹
Km (VvGT6): 9.24 µM
kcat (VvGT6): 0.76 s⁻¹
